Measurements from patent US11076595B2, “1-(n,n-disubstituted carbamoyl) 4-(substituted sulfonyl)triazolin-5-one derivative, 4-(n,n-disubstituted carbamoyl) 1-(substituted sulfonyl)triazolin-5-one derivative, and herbicide containing said derivative as active ingredient” (HOKKO CHEMICAL INDUSTRY CO., LTD., priority 2017, dated 2021).

Tests used:
Type in all cases: in vivo
Echinochloa crus-galli [1] = assay: Test Example 4: herbicidal effect test by foliage treatment in upland field; conditions: upland field foliage treatment 7 days after sowing; 120 g/10a; evaluated 14 days after treatment
Procedure: (§1) This test was performed with two replications per one formulation concentration plot, and 14 days after the formulation treatments, the weed suppression rate (%) was determined according to the following equation (Math. 1). Weed suppression rate (%)=(1−an average dry weight (g) of plants in treated plots/an average dry weight (g) of plants in untreated plots)×100 [Math. 1]
(§2) A pot having a size of 36 cm^2 was filled with field soil (alluvial soil) and after uniformly mixing the soil of the surface layer of 1 cm with 20 grains of each weed seed of crabgrass, Echinochloa crus-galli, Chenopodium album and Amaranthus viridis, the surface layer was pressed lightly. Seven days after the sowing, an emulsifiable concentrate prepared according to Formulation Example 5 by using the compound shown in Table 8 below was diluted with water, and the water-diluted formulation was sprayed on the soil surface at a ratio of 100 liter per 10 are. The application rate of the active ingredient, by conversion, corresponded to 120 g per 10 are. Fourteen days after the formulation treatment, the herbicidal effect was evaluated by the same criteria as in Test Example 1.

Amaranthus viridis = assay: as above; conditions: upland field foliage treatment 7 days after sowing; 120 g/10a; evaluated 14 days after treatment
Procedure: as §1, §2

crabgrass = assay: as above; conditions: upland field foliage treatment 7 days after sowing; 120 g/10a; evaluated 14 days after treatment
Procedure: as §1, §2

Chenopodium album = assay: as above; conditions: upland field foliage treatment 7 days after sowing; 120 g/10a; evaluated 14 days after treatment
Procedure: as §1, §2

Lindernia pyxidaria [2] = assay: Test Example 1: herbicidal effect test by soil treatment in paddy field; conditions: 120 g/10a, paddy soil treatment just after sowing, 14 days after treatment
From the text: (§3) A Wagner pot having an area of 1/10000 are was filled with paddy field soil and after adding water, a chemical fertilizer (N:P:K=17:17:17) was mixed, followed by puddling. Thereafter, 30 grains of each of Echinochloa crus-galli, broad-leaved weed (Lindernia pyxidaria and Monochoria vaginalis) and Scirpus juncoides seeds were sown to a depth of 0 to 1 cm. Immediately after the sowing, the pot was flooded, and the depth of water was kept at about 3 cm. The pot was subsequently managed in a glass greenhouse. Just after that, an emulsifiable concentrate prepared according to Formulation Example 5 by using the compound shown in Table 5 below was diluted with water, and a predetermined amount of the water-diluted formulation was added dropwise. The application rate of the active ingredient, by conversion, corresponded to 120 g per 10 are.
as §1

Echinochloa crus-galli [3] = assay: as above; conditions: 120 g/10a, paddy soil treatment just after sowing, 14 days after treatment
From the text: as §3, §1

Monochoria vaginalis [4] = assay: as above; conditions: 120 g/10a, paddy soil treatment just after sowing, 14 days after treatment
From the text: as §3, §1

Scirpus juncoides [5] = assay: as above; conditions: 120 g/10a, paddy soil treatment just after sowing, 14 days after treatment
From the text: as §3, §1

Lindernia pyxidaria [6] = assay: Test Example 2: herbicidal effect test by treatment during growing period in paddy field; conditions: treatment 7 days after sowing, 120 g/10a, evaluated 14 days after treatment
Procedure: as §1
as §3, with “greenhouse. Seven days” for “greenhouse. Just”, “after sowing,” for “after that,”, “Table 6” for “Table 5”, “are. The test was performed with two replications per one formulation concentration plot, and 14 days after the formulation treatments, the weed suppression rate (%) was determined according to the equation (Math. 1).” for “are.”

Echinochloa crus-galli [7] = assay: as above; conditions: treatment 7 days after sowing, 120 g/10a, evaluated 14 days after treatment
Procedure: as §1
as §3, with “greenhouse. Seven days” for “greenhouse. Just”, “after sowing,” for “after that,”, “Table 6” for “Table 5”, “are. The test was performed with two replications per one formulation concentration plot, and 14 days after the formulation treatments, the weed suppression rate (%) was determined according to the equation (Math. 1).” for “are.”

Monochoria vaginalis [8] = assay: as above; conditions: treatment 7 days after sowing, 120 g/10a, evaluated 14 days after treatment
Procedure: as §1
as §3, with “greenhouse. Seven days” for “greenhouse. Just”, “after sowing,” for “after that,”, “Table 6” for “Table 5”, “are. The test was performed with two replications per one formulation concentration plot, and 14 days after the formulation treatments, the weed suppression rate (%) was determined according to the equation (Math. 1).” for “are.”

Scirpus juncoides [9] = assay: as above; conditions: treatment 7 days after sowing, 120 g/10a, evaluated 14 days after treatment
Procedure: as §1
as §3, with “greenhouse. Seven days” for “greenhouse. Just”, “after sowing,” for “after that,”, “Table 6” for “Table 5”, “are. The test was performed with two replications per one formulation concentration plot, and 14 days after the formulation treatments, the weed suppression rate (%) was determined according to the equation (Math. 1).” for “are.”

Structure (SMILES)	herbicidal effect (weed suppression rate), Echinochloa crus-galli (Echinochloa crus-galli [1]) [%]	herbicidal effect (weed suppression rate), Amaranthus viridis (Amaranthus viridis) [%]	herbicidal effect (weed suppression rate), Crabgrass (crabgrass) [%]	herbicidal effect (weed suppression rate), Chenopodium album (Chenopodium album) [%]	weed suppression rate, Lindemia pyxidaria (Lindernia pyxidaria [2]) [%]	weed suppression rate, Echinochloa crus-galli (Echinochloa crus-galli [3]) [%]	weed suppression rate, Monochoria vaginalis (Monochoria vaginalis [4]) [%]	weed suppression rate, Scirpus juncoides (Scirpus juncoides [5]) [%]	weed suppression rate, Lindemia pyxidaria (Lindernia pyxidaria [6]) [%]	weed suppression rate, Echinochloa crus-galli (Echinochloa crus-galli [7]) [%]	weed suppression rate, Monochoria vaginalis (Monochoria vaginalis [8]) [%]	weed suppression rate, Scirpus juncoides (Scirpus juncoides [9]) [%]
Cc1cc(F)ccc1N(C(=O)n1ncn(S(=O)(=O)C2CCCCC2)c1=O)C(C)C [Compound 1-319]	70	70	80	70	80	100	80	100	80	100	90	80
CC(C)N(C(=O)n1ncn(S(=O)(=O)C2CC2)c1=O)c1c(F)c(F)cc(F)c1F [Compound 1-206]	100	80	100	60	100	100	90	100	80	100	90	100
CC(C)N(C(=O)n1ncn(S(=O)(=O)C2CCCCC2)c1=O)c1ccc(F)c(F)c1F [Compound 1-309]	100	0	100	80	100	100	100	100	80	100	100	100
CC(C)N(C(=O)n1ncn(S(=O)(=O)N(C)C)c1=O)c1ccc(F)nc1 [Compound 1-1129]	–	–	–	–	80	90	80	90	80	90	80	90
CC(C)N(C(=O)n1ncn(S(=O)(=O)c2cccs2)c1=O)c1ccc(F)cc1 [Compound 1-1052]	–	–	–	–	80	90	80	90	80	90	80	90
CC(C)N(C(=O)n1ncn(S(=O)(=O)C2CCCCC2)c1=O)c1ccccc1F [Compound 1-296]	–	–	–	–	80	90	80	90	90	90	90	90
CC(C)N(Cc1ccc(F)cc1F)C(=O)n1ncn(S(=O)(=O)C2CC2)c1=O [Compound 1-238]	–	–	–	–	80	90	80	90	80	90	90	90
Cc1ccc(N(C(=O)n2ncn(S(=O)(=O)C3CC3)c2=O)C(C)C)c(Cl)c1 [Compound 1-223]	–	–	–	–	80	100	80	90	80	90	80	90
CC(C)N(C(=O)n1ncn(S(=O)(=O)C2CCCCC2)c1=O)c1ccc(Cl)nc1 [Compound 1-338]	–	–	–	–	90	100	90	100	80	90	80	90
CC(C)N(C(=O)n1ncn(S(=O)(=O)C(C)C)c1=O)c1ccc(Cl)nc1 [Compound 1-97]	–	–	–	–	80	90	90	90	80	90	90	80
CC(C)N(C(=O)n1ncn(S(=O)(=O)C2CC2)c1=O)c1ccc(Cl)nc1 [Compound 1-248]	–	–	–	–	100	100	90	100	90	100	90	90
CC(C)N(C(=O)n1ncn(S(=O)(=O)C(C)C)c1=O)c1ccccc1F [Compound 1-55]	–	–	–	–	90	90	90	90	90	90	90	90
Cc1cc(N(C(=O)n2ncn(S(=O)(=O)C3CC3)c2=O)C(C)C)no1 [Compound 1-250]	–	–	–	–	80	90	80	90	90	90	90	80
Cc1ccc(S(=O)(=O)n2cnn(C(=O)N(c3ccc(Cl)nc3Cl)C(C)C)c2=O)cc1 [Compound 1-690]	–	–	–	–	100	100	90	90	90	100	90	90
CC(C)N(C(=O)n1ncn(S(=O)(=O)C2CC2)c1=O)c1ccc(Cl)cc1Br [Compound 1-219]	–	–	–	–	100	100	100	100	90	100	90	100
